The record followed here is US10961163B2, “Compositions and methods useful for enhancing the microbial conversion of nitrate into ammonium” (The Regents of the University of California, priority 2016, dated 2021).

Like-named read-outs stand apart in the source and are kept apart here.

In experiment [1] the test system is microbial enrichment cultures. In words: Inhibitory potency (IC50) of inorganic compounds against growth and ammonium production, microbial enrichment with yeast extract. In kind it is cell-based.
The test system of experiment [2] is microbial enrichment cultures. Nature of the experiment: Ammonium production normalized by growth (NH4+/OD ratio) of microbial enrichment cultivated on individual carbon sources. The experiment is classed as cell-based.
Setting [3] is: microbial enrichment with complex carbon source (yeast extract), serial dilutions of inorganic compound, higher ratio favors ammonium production.
The mark [4] stands for this setting: average of 8 independent cultures amended with varying concentrations of the carbon source, ammonium by colorimetric (Bertholet) assay, growth by OD 600.

Take `[Cl-].[Cl-].[Cl-].[Ga+3]` [Gallium(III)chloride]: the “NH4^+ IC50/growth IC50 ratio” value in experiment [1] worked out at 1.0037. Same read-out and setting: under `O=C([O-])[O-].[Na+].[Na+]` [Sodium carbonate] stands 0.5039. Take `O=P([O-])(O)OP(=O)([O-])O.[Na+].[Na+]` [Sodium pyrophosphate dibasic]: in experiment [1] (setting [3]), the “NH4^+ IC50/growth IC50 ratio” value came out at 0.6988. Consider `[Cl-].[Cl-].[Cl-].[Eu+3]` [Europium(III) chloride], for which the “NH4^+ IC50/growth IC50 ratio” value in experiment [1] is on record as 0.1036.

In the case of Manganese (II) chloride tetrahydrate, the “NH4^+ IC50/growth IC50 ratio” value in experiment [1] is reported as 0.0037. In the case of `O=C1c2ccc(S(=O)(=O)O)cc2C(=O)c2cc(S(=O)(=O)O)ccc21` [AQDS, 9,10-Anthraquinone-2,7-disulphonic acid], in experiment [1] (setting [3]), the “NH4^+ IC50/growth IC50 ratio” value is listed as 6.4905. Same read-out and setting: with `O=C(O)CC(NCCNC(CC(=O)O)C(=O)O)C(=O)O` (stereo not shown) [Ethylenediamine-N,N′-disuccinic acid] the figure was 44.3418.

With `O=NO` [Sodium nitrite], the “NH4^+ IC50/growth IC50 ratio” value in experiment [1] came out at 0.3023. On the same count and under the same terms, with `[Na+].[Na+].[O]=[Mo](=[O])([O-])[O-]` [Sodium molybdate] the figure was 6.7259; with `[Cl-].[Cl-].[Zn+2]` [Zinc chloride], 0.1037; with `O=[N+]([O-])[O-].[Na+]` [Sodium nitrate], 3.4080. Same read-out and setting: with `O=S(=O)([O-])[O-].[Ag+].[Ag+]` [silver sulfate] the figure was 1.9192. Turning to `O=C(O)c1cc(O)c(O)c(O)c1` [Gallic Acid], the “NH4^+ IC50/growth IC50 ratio” value in experiment [1] (setting [3]) is recorded as 4.9374. Still for that read-out and setting: under `COc1cc(CO)ccc1O` [Vanillyl Alcohol] stands 2.0632. Turning to Sodium deoxycholate monohydrate, in experiment [1], the “NH4^+ IC50/growth IC50 ratio” value came out at 0.0027. As to `O.O.O.O.O.[Cd+2].[Cd+2].[Cl-].[Cl-].[Cl-].[Cl-]` [Cadmium chloride hemipentahydrate], the “NH4^+ IC50/growth IC50 ratio” value in experiment [1] is given as 0.2809. Consider `CS(C)(=O)=O` [dimethyl sulfone], for which the “NH4^+ IC50/growth IC50 ratio” value in experiment [1] (setting [3]) came out at 2.0187. Consider `[Cl-].[Rb+]` [rubidium chloride], for which, in experiment [1], the “NH4^+ IC50/growth IC50 ratio” value was 1.4483. As to `O=S(=O)([O-])CCS.[Na+]` [Sodium 2-mercaptoethanesulfonate], the “NH4^+ IC50/growth IC50 ratio” value in experiment [1] (setting [3]) is on record as 13.0401. For the compound `O.O.O.O.O.O=[Se]([O-])[O-].[Na+].[Na+]` [Sodium selenite pentahydrate], the “NH4^+ IC50/growth IC50 ratio” value in experiment [1] turned out to be 0.2998. As for `O=C[C@H](O)[C@@H](O)[C@@H](O)[C@H](O)CO` [D-Galactose], in experiment [2] (setting [4]), the Ammonium/OD ratio came to 0.93. Still for that read-out and setting: with `CSCC[C@H](N)C(=O)O` [L-Methionine] the figure was 1.67; with `OC[C@H]1O[C@@H](n2cnc3c(O)ncnc32)[C@H](O)[C@@H]1O` [Inosine], 1.44.

As to `C[C@H](N)C(=O)O` [L-Alanine], in experiment [2] (setting [4]), the Ammonium/OD ratio worked out at 1.45. Same read-out and setting: with `CCCCCCCC(=O)[O-].[Na+]` [Sodium octanoate] the figure was 1.21; with `CC(C)[C@H](N)C(=O)O` [L-Valine], 0.94.

For the compound `OC[C@H]1O[C@@H](O[C@H]2[C@H](O)[C@@H](O)[C@H](O)O[C@@H]2CO)[C@H](O)[C@@H](O)[C@@H]1O` [D-Cellobiose], the Ammonium/OD ratio in experiment [2] (setting [4]) is listed as 1.14. On the same count and under the same terms, under `O=c1ccn([C@@H]2O[C@H](CO)[C@@H](O)[C@H]2O)c(=O)[nH]1` [Uridine] stands 0.96; under `N[C@@H](Cc1c[nH]cn1)C(=O)O` [L-Histidine], 1.10.

As for `Cl.Nc1ncnc2nc[nH]c12.O` [Adenine hydrochloride hydrate], in experiment [2] (setting [4]), the Ammonium/OD ratio was found to be 0.93. In the case of `Nc1ncnc2c1ncn2[C@@H]1O[C@H](CO)[C@@H](O)[C@H]1O` [Adenosine], the Ammonium/OD ratio in experiment [2] (setting [4]) amounted to 1.25. As to L-tyrosine disodium salt, the Ammonium/OD ratio in experiment [2] is reported as 0.87.

Consider `O=C(CO)[C@@H](O)[C@H](O)[C@H](O)CO` [D-Fructose], for which the Ammonium/OD ratio in experiment [2] (setting [4]) was determined as 1.42. The same measure, in the same setting: with `O[C@H]1[C@H](O)[C@@H](O)[C@H](O)[C@@H](O)[C@H]1O` [m-Inositol] the figure was 1.25. On the same count and under the same terms, under `C[C@H](O)C(=O)[O-].[Na+]` [Sodium L-Lactate] stands 1.35. As to `O.O.O=C([O-])CC(O)(CC(=O)[O-])C(=O)[O-].[Na+].[Na+].[Na+]` [Trisodium citrate dihydrate], the Ammonium/OD ratio in experiment [2] turned out to be 1.73.

`O=C(O)c1ccc(O)cc1` [4-Hydroxybenzoic Acid]: the Ammonium/OD ratio in experiment [2] (setting [4]) is reported as 1.31. As for `CC[C@H](C)[C@H](N)C(=O)O` [L-Isoleucine], in experiment [2] (setting [4]), the Ammonium/OD ratio is 1.13.

For `N[C@@H](Cc1c[nH]c2ccccc12)C(=O)O` [L-Tryptophan], the Ammonium/OD ratio in experiment [2] came out at 1.23. Take `O=C(CO)[C@@H](O)[C@H](O)[C@@H](O)CO` [L-Sorbose]: the Ammonium/OD ratio in experiment [2] (setting [4]) is on record as 1.90. Consider `CCCC(=O)[O-].[Na+]` [Sodium butyrate], for which the Ammonium/OD ratio in experiment [2] (setting [4]) is 1.04. Still for that read-out and setting: under `CCO` [Ethanol] stands 0.91; under `O=C[C@H](O)[C@@H](O)[C@H](O)[C@H](O)C(=O)O` [D-Glucuronic Acid], 1.02. Consider `C[C@H](O)[C@H](O)[C@@H](O)[C@@H](O)C=O.O` [L-Rhamnose monohydrate], for which, in experiment [2] (setting [4]), the Ammonium/OD ratio stood at 1.09. For the compound `O=C[C@H](O)[C@@H](O)[C@H](O)[C@H](O)CO` [D-Glucose], the Ammonium/OD ratio in experiment [2] (setting [4]) amounted to 1.33. `O=C(O)CC(O)(CC(=O)O)C(=O)O` [Citric Acid]: the Ammonium/OD ratio in experiment [2] (setting [4]) is reported as 1.65.

With `Nc1cc[nH]c(=O)n1` [Cytosine], in experiment [2] (setting [4]), the Ammonium/OD ratio stood at 1.37. As for `O.O=C([O-])C[C@H](O)C(=O)[O-].[Na+].[Na+]` [L-Malic acid disodium salt monohydrate], the Ammonium/OD ratio in experiment [2] amounted to 1.43. As for `CC(=O)C(=O)[O-].[Na+]` [Sodium pyruvate], the Ammonium/OD ratio in experiment [2] (setting [4]) is given as 0.96.

As to `C[C@@H](O)[C@H](N)C(=O)O` [L-Threonine], the Ammonium/OD ratio in experiment [2] (setting [4]) is given as 1.35. Same read-out and setting: under `OCC(O)CO` [Glycerol] stands 1.19; under `NC(=O)[C@@H](O)[C@@H](O)[C@H](O)[C@@H](O)C=O` [Glucuronamide], 1.38; under `OC[C@@H](O)[C@@H](O)[C@H](O)[C@@H](O)CO` [D-Sorbitol], 0.82. Turning to `C[C@@H](O)C(=O)[O-].[Na+]` [Sodium D-Lactate], in experiment [2] (setting [4]), the Ammonium/OD ratio is 1.16.

Regarding `N[C@@H](Cc1ccccc1)C(=O)O` [L-Phenylalanine], the Ammonium/OD ratio in experiment [2] (setting [4]) was 1.40. On the same count and under the same terms, under `O.O.OC[C@H]1O[C@H](O[C@H]2O[C@H](CO)[C@@H](O)[C@H](O)[C@H]2O)[C@H](O)[C@@H](O)[C@@H]1O` [D-Trehalose dihydrate] stands 0.82; under `NC(=O)C[C@H](N)C(=O)O` [L-Asparagine], 1.16; under `O=C[C@H](O)[C@@H](O)[C@@H](O)CO` [L-Arabinose], 1.70.

Turning to `O=C[O-].[Na+]` [Sodium Formate], the Ammonium/OD ratio in experiment [2] (setting [4]) is on record as 0.72. The same measure, in the same setting: under `O=C[C@@H](O)[C@@H](O)[C@H](O)[C@H](O)CO` [D-Mannose] stands 0.96; under `OC[C@H]1O[C@@H](O[C@H]2[C@H](O)[C@@H](O)[C@H](O)O[C@@H]2CO)[C@H](O)[C@@H](O)[C@H]1O` [Beta-Lactose], 0.99; under `O.O.O.O.O.O.O=C([O-])CCC(=O)[O-].[Na+].[Na+]` [Sodium succinate dibasic hexahydrate], 1.03. As to `NCC(=O)O` [Glycine], the Ammonium/OD ratio in experiment [2] (setting [4]) was 0.94.

For the compound `O=C1NC(=O)C(=O)N1` [Parabanic Acid], the Ammonium/OD ratio in experiment [2] (setting [4]) was 1.12.

Consider `N[C@@H](CO)C(=O)O` [L-Serine], for which the Ammonium/OD ratio in experiment [2] (setting [4]) came out at 1.20.

As for `O=C([O-])/C=C/C(=O)[O-].[Na+].[Na+]` [Sodium Fumarate dibasic], the Ammonium/OD ratio in experiment [2] (setting [4]) came out at 0.81. On the same count and under the same terms, under `Cc1c[nH]c(=O)[nH]c1=O` [Thymine] stands 1.13. `CC(=O)N[C@H]1C(O)O[C@H](CO)[C@@H](O)[C@@H]1O` (stereo partly drawn) [N-Acetyl-D-Glucosamine]: the Ammonium/OD ratio in experiment [2] (setting [4]) turned out to be 1.07. Still for that read-out and setting: under `Nc1ccn([C@@H]2O[C@H](CO)[C@@H](O)[C@H]2O)c(=O)n1` [Cytidine] stands 1.64; under `O=C[C@H](O)[C@@H](O)[C@H](O)CO` [D-Xylose], 1.06. The same measure, in the same setting: under `O=C(O)CC(O)C(=O)O` (racemic) [D,L-Malic Acid] stands 1.41. As to `Cl.Cl.NCCCCN` [Putrescine Dihydrochloride], the Ammonium/OD ratio in experiment [2] was 1.20. Take `OC[C@H]1O[C@@H]2O[C@H]3[C@H](O)[C@@H](O)[C@@H](O[C@H]4[C@H](O)[C@@H](O)[C@@H](O[C@H]5[C@H](O)[C@@H](O)[C@@H](O[C@H]6[C@H](O)[C@@H](O)[C@@H](O[C@H]7[C@H](O)[C@@H](O)[C@@H](O[C@H]1[C@H](O)[C@H]2O)O[C@@H]7CO)O[C@@H]6CO)O[C@@H]5CO)O[C@@H]4CO)O[C@@H]3CO` [a-Cyclodextrin]: the Ammonium/OD ratio in experiment [2] (setting [4]) is on record as 1.07. The same measure, in the same setting: under `O=CC[C@H](O)[C@H](O)CO` [2-Deoxy-D-Ribose] stands 1.00; under `N[C@H](CO)C(=O)O` [D-Serine], 1.81; under `O=C[C@H](O)[C@H](O)[C@H](O)CO` [D-Ribose], 1.36. Same read-out and setting: with `O.O.O.O.O.OC[C@H]1O[C@H](OC[C@H]2O[C@H](O[C@]3(CO)O[C@H](CO)[C@@H](O)[C@@H]3O)[C@H](O)[C@@H](O)[C@@H]2O)[C@H](O)[C@@H](O)[C@H]1O` [D-Raffinose pentahydrate] the figure was 1.03. On the same count and under the same terms, under `Cl.N[C@@H](CS)C(=O)O.O` [L-Cysteine hydrochloride monohydrate] stands 1.00; under `OC[C@@H](O)[C@H](O)[C@@H](O)CO` [Xylitol], 1.13.
